Measurements reported in US9145398B2, “Methods of treating CXCR4-expressing cancers” (University of Louisville Research Foundation, Inc., priority 2010, dated 2015).

Columns and labels:
hCXCR4-GFP [1] = molecular target: T1, hCXCR4-GFP (Homo sapiens, UniProt P61073); test: Intracellular calcium mobilization assay, hCXCR4-GFP expressing 300.19 cells, CXCL12; format: cell-based; parameters: IC50 of intracellular calcium mobilization, CXCR4; other: CXCL12-mediated; other: 50 μM test compound; normalized Δ fluorescence (CXCR4, intracellular calcium mobilization); other: 50 μM test compound, 60 seconds pretreatm; details: CXCL12-mediated; read-out: IC50 of intracellular calcium mobilization, CXCR4
T1 sequence (P61073 whole entry): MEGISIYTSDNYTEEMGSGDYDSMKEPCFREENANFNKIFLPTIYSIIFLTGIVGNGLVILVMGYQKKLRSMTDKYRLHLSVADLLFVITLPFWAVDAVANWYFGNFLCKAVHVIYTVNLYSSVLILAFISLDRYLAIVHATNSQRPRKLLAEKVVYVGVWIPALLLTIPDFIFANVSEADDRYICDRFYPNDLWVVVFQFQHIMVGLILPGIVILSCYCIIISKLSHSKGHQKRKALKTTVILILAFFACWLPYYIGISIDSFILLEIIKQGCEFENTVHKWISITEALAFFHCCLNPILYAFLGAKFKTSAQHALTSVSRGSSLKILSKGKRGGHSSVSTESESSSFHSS
Protocol: (§1) Intracellular Calcium Mobilization Assay Method: The intracellular calcium mobilization assay used 300.19 cells which stably expressed hCXCR4-GFP, as described previously in Pello et al. (2008). Cells were loaded with INDO-I and then pretreated with the 50 μM of the test compound for 60 seconds prior to stimulation of intracellular calcium mobilization with an optimized concentration of CXCL12. […] The value Δ florescence is the difference between (a) the fluorescence ratio from cells before exposure to CXCL12 at its optimized concentration and (b) the fluorescence ratio from cells following stimulation with the optimized concentration of CXCL12. Decreases in Δ florescence correspond to decreases in intracellular calcium mobilization, and therefore, decreased signaling. As CXCL12 concentration was optimized for each test compound, results are presented as normalized Δ florescence which is Δ fluorescence divided by the fluorescence ratio of optimized CXCL12-only stimulation. In some instances, the IC50 concentration (concentration at which intracellular calcium mobilization is reduced to 50% of the Δ fluorescence of the CXCL12 plus DMSO control) of the test compounds was determined. All assays were performed a minimum of four times; error bars represent the standard deviation of the mean.

MCF7 cells = test: MTT cell proliferation assay, MCF7; format: cell-based, human; details: 4 days; for IC50: Homo sapiens, MCF7, 96 h
Protocol: (§2) To determine the potential for compounds to impact the proliferation of cells, cell growth was assessed capacity using the 3-(4,5-dimethylthiazol-2-yl)-2,5-diphenyltetrazolium bromide (MTT) assay. The effect of these compounds was determined for four cell lines: HS27, a “normal” fibroblast cell line; MCF7, an estrogen-dependant non-metastatic breast cancer cell line; MDA-MB-231, an estrogen-independent metastatic breast cancer cell line; and A549, a lung cancer cell line. Cells were left untreated, treated with 12.5 mM DMSO, or treated with varying concentrations of four compounds, (I-9, I-25, I-36, and I-37), then incubated for 4 days, before analysis. Absorbance at 490 nm represents proliferating cells. For samples using compounds, these values are normalized to untreated samples.

A549 cells = test: MTT cell proliferation assay, A549; format: cell-based, human; details: 4 days; for IC50: Homo sapiens, A549, 96 h
Protocol: as §2

HS27 cells = test: MTT cell proliferation assay, HS27; format: cell-based, human; details: 4 days, normal fibroblast cell line
Protocol: as §2

hCXCR4-GFP [2] = test: Intracellular calcium mobilization assay, hCXCR4-GFP expressing 300.19 cells, CXCL12; format: cell-based, human; details: 50 μM test compound
Protocol: as §1

BLT1 [3] = molecular target: T2, BLT1 (Homo sapiens, UniProt Q15722); test: Intracellular calcium mobilization assay, cells expressing BLT1, LTB4; format: cell-based; details: LTB4-mediated
T2 sequence (Q15722 whole entry, species assumed): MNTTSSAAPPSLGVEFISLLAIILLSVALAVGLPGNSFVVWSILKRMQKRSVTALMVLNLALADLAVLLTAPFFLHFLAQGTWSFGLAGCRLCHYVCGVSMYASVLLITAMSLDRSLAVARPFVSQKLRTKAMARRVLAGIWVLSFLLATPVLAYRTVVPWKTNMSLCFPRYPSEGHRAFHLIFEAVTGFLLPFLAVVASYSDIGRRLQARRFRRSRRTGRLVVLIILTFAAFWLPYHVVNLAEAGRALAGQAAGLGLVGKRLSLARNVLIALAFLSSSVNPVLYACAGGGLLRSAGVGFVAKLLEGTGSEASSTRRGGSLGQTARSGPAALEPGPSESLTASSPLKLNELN
Protocol: as §1
At 50 μM test compound concentrations in BLT1-expressing cells, I-44 (0.040) and I-46 (0.017) inhibited intracellular calcium mobilization.

300.19 cells = test: Cytotoxicity assay, propidium iodide based flow cytometry; format: cell-based; details: for cytotoxicity, percentage of cells staining positive for PI: 50 μM test compound; for cytotoxicity in dose response below 50 μM: 10 μM, 5 μM and 1 μM tested
Protocol: Cytotoxicity Assay Method: To determine the potential for test compound cytotoxicity to influence cell intracellular calcium mobilization and chemotaxis, cell cytotoxicity was assessed using propidium iodide (PI) based flow cytometry. Propidium iodine is impermeable to intact cell membranes and thus its lack of intercalation into DNA (which increases PI fluorescence) is a positive indicator of cell viability. Cytotoxicity values are presented as percentage of cells staining positive for PI. Lower values of fluorescence indicate less cytotoxicity. All assays were performed a minimum of four times; error bars represent the standard deviation of the mean.

MDA-MB-231 cells = test: MTT cell proliferation assay, MDA-MB-231; format: cell-based, human; details: 4 days; for IC50: Homo sapiens, MDA-MB-231, 96 h
Protocol: as §2

hCXCR4-GFP [4] = test: Chemotaxis assay, hCXCR4-GFP expressing 300.19 cells, CXCL12; format: cell-based, human; details: from chemotaxis indices at 50 μM
Protocol: (§3) Cells were suspended in chemotaxis buffer (RPMI 1640, 1% fetal bovine serum, 1 mM HEPES) at a concentration of 1×10^7 cells per ml. Cell chemotaxis was determined by examining the migration of the 300.19 cells in response to administration of 50 μM test compound plus an optimized concentration of CXCL12 using a chemotaxis assay that was previously described in Basu et al. (Basu et al., Critical role for polar residues in coupling leukotriene B4 binding to signal transduction in BLT1, J. Biol. Chem. (2007) Vol. 282, pp. 10005-17). 100 μL of 300.19 cells from the above cell suspension were placed in the upper chamber of a Transwell support (Corning Costar, Cambridge, Mass.) and were separated by a 5 micron filter from a bottom chamber containing 50 μM test compound plus the optimized concentration of CXCL12 in a final bottom chamber volume of 600 μl. After 3 h of incubation at 37° C. in 5% CO2, the upper chamber was removed and cells in the lower chamber were counted in a Bürker chamber. Cell counts for all samples were normalized to a CXCL12 plus DMSO control and results are reported using this normalized measure, referred to herein as the chemotaxis index. In some instances, the IC50 concentration (i.e., the concentration at which the chemotaxis index is reduced to 50% of the chemotaxis index of the CXCL12 plus DMSO control) of the test compounds was determined. All assays were performed a minimum of four times; error bars represent the standard deviation of the mean.

hCXCR4-GFP [5] = molecular target: T1, hCXCR4-GFP; test: as above; format: cell-based; details: for chemotaxis index (CXCR4-mediated): 50 μM test compound plus optimized CXCL12, normalized to CXCL12 plus DMSO control
Protocol: as §3

BLT1 [6] = molecular target: T2, BLT1; test: Chemotaxis assay, cells expressing BLT1, LTB4; format: cell-based; details: 50 μM test compound, LTB4-induced
Protocol: as §3
To examine specificity of some of the compounds for CXCR4, their activity was tested against a non-family member class A G protein-coupled receptor, BLT1. […] I-38 and I-43 inhibited BLT1-mediated chemotaxis (0.23) and (0.045) to about the same extent as CXCR4-mediated chemotaxis (0.21) and (0.064), respectively.

[7] = Test for toxicity in mice; format: in vivo; details: i.p. 5 mg/kg, then 20 or 40 mg/kg two days later; observed over 3 weeks
Protocol: Test for Toxicity: Mice were treated by intra-peritoneal injections of three of compounds I-28, I-36, and I-38 at the first dose of 5 mg/kg of body weight, followed by a second injection of either 20 mg/kg of body weight or 40 mg/kg of body weight two days later.

TC-1 tumor cells = format: in vivo; details: 5 mg/kg i.p. every day for 21 days; versus PBS or Vehicle controls
Text: Development of Animal Model for CXCR4 Dependent Cancer Metastasis in Lungs: To establish a CXCR4 dependent lung tumor metastasis model, we first screened several cancer cell lines that are known to metastasize to lungs in mice models to determine which cancer cell lines endogenously express CXCR4 receptor. The mice cell lines screened were Lewis lung carcinoma, B16F10 melanoma, and TC-1 cervical carcinoma. Mice cell lines were screened using flow cytometry-based surface receptor staining using a fluorochrome labeled antibody to mouse CXCR4 receptor. […] The TC-1 cell line was generated by transfection of murine lung squamous epithelial cells by Human pappillomavirus (HPV) oncogenes E6, E7, and activated Ras.
5 mg/kg body weight of AMD3100, I-28, I-36, or I-38 were also injected at the same dose intra-peritoneal (i.p.) every day for 21 days starting from the day before the tumor cell injection. Mice were sacrificed and lungs were perfused and collected on day 21 post tumor challenge. Lungs were stored in formalin for 16 hrs and then transferred into 70% ethanol until the lung lobes became lucid. All five lung lobes were separated. Tumors were counted using a magnifying glass or a microscope. Tumor sizes were measured using a digital caliper. The total number of tumors counted in all five lung lobes of an individual mouse is reported as the tumor incidence. Mean tumor sizes were added together to calculate cumulative tumor size, which is reported as the tumor burden for each mouse.

IC50 (hCXCR4-GFP [1]) [µM] | IC50 (A549 cells) [µM] | IC50 (BLT1 [3]) [µM] | IC50 (MDA-MB-231 cells) [µM] | SMILES | IC50 (MCF7 cells) [µM] | proliferation inhibition, HS27 (in words) (HS27 cells) | difference between CXCR4- and BLT1-mediated intracellular calcium mobilization (hCXCR4-GFP [2]) | cytotoxicity, percentage of cells staining positive for PI (300.19 cells) [%] | cytotoxicity in dose response below 50 μM (300.19 cells) | fold greater inhibition of CXCR4-mediated than BLT1-mediated chemotaxis (hCXCR4-GFP [4]) [fold] | chemotaxis index (CXCR4-mediated) (hCXCR4-GFP [5]) | proliferation inhibition, MCF7 (in words) (MCF7 cells) | chemotaxis index (BLT1-mediated) (BLT1 [6]) | apparent toxicity (loss of body weight, signs of physiological distress) [7] | TC-1 metastatic tumor incidence and burden in lungs (TC-1 tumor cells) | IC50 (hCXCR4-GFP [5]; hCXCR4-GFP 300.19 cells, CXCL12) [µM] | proliferation inhibition, A549 (in words) (A549 cells) | proliferation inhibition, MDA-MB-231 (in words) (MDA-MB-231 cells)
1 | 7.5 | 20 | 5 | COc1cc(NCCCC(C)Nc2ccnc3cc4ccccc4cc23)c2ncccc2c1 (centres unmarked) [Compound I-9, N-(5-(6-methoxyquinolin-8-ylamino)pentan-2-yl)benzo[g]quinolin-4-amine] | 5 | consistently inhibited cell proliferation even at concentrations nearing 1 μM | no significant difference | 81.2 | no cytotoxicity beyond the initial 50 μM screening concentration |  |  |  |  |  |  |  |  | 
1 | 10 | 40 | 10 | CN(C)c1cccc(Nc2nc3ccccc3nc2NS(=O)(=O)c2ccc([N+](=O)[O-])cc2)c1 [Compound I-25, N-[3-(3-dimethylaminophenyl)aminoquinoxalin-2-yl]-4-nitro-benzenesulfonamide] |  | marginal proliferation inhibition at higher concentrations |  | 23.4 | no cytotoxicity beyond the initial 50 μM screening concentration | 12 | 0.030 | only marginally inhibited cell proliferation of MCF7 cells at high concentrations | 0.38 |  |  |  |  | 
 |  |  |  | Cc1ccc(NCC(=O)Nc2ncc(Cc3cccc(C(F)(F)F)c3)s2)cc1C [Compound I-37, 2-(3,4-dimethylphenyl)amino-N-[5-[[3-(trifluoromethyl)phenyl]methyl]thiazol-2-yl]-acetamide] |  | did not inhibit proliferation for any tested cell line |  |  |  |  |  | did not inhibit proliferation for any tested cell line |  |  |  |  | did not inhibit proliferation for any tested cell line | did not inhibit proliferation for any tested cell line

SMILES | IC50 (hCXCR4-GFP [1]) [µM] | IC50 (A549 cells) [µM] | IC50 (BLT1 [3]) [µM] | IC50 (MDA-MB-231 cells) [µM] | IC50 (MCF7 cells) [µM] | proliferation inhibition, HS27 (in words) (HS27 cells) | difference between CXCR4- and BLT1-mediated intracellular calcium mobilization (hCXCR4-GFP [2]) | cytotoxicity, percentage of cells staining positive for PI (300.19 cells) [%] | cytotoxicity in dose response below 50 μM (300.19 cells) | fold greater inhibition of CXCR4-mediated than BLT1-mediated chemotaxis (hCXCR4-GFP [4]) [fold] | chemotaxis index (CXCR4-mediated) (hCXCR4-GFP [5]) | proliferation inhibition, MCF7 (in words) (MCF7 cells) | chemotaxis index (BLT1-mediated) (BLT1 [6]) | apparent toxicity (loss of body weight, signs of physiological distress) [7] | TC-1 metastatic tumor incidence and burden in lungs (TC-1 tumor cells) | IC50 (hCXCR4-GFP [5]; hCXCR4-GFP 300.19 cells, CXCL12) [µM] | proliferation inhibition, A549 (in words) (A549 cells) | proliferation inhibition, MDA-MB-231 (in words) (MDA-MB-231 cells)
Cc1ccc(N2C(=O)/C(=C/Nc3ccc(S(=O)(=O)Nc4ccc(O)cc4)cc3)c3ccccc3C2=O)cc1C [Compound I-28, 4-[[2-(3,4-dimethylphenyl)-1,3-dioxo-4-isoquinolylidene]methylamino]-N-(4-hydroxyphenyl)-benzenesulfonamide] | 10 |  | 22.5 |  |  |  | no significant difference |  |  |  |  |  |  | did not induce any apparent toxicity | reduced mice TC-1 metastatic tumor incidence and burden in lungs |  |  | 
CCn1c2ccccc2c2ccc(Nc3nc4ccccc4nc3NS(=O)(=O)c3ccc(C)cc3)cc21 [Compound I-36, N-[3-(9-ethylcarbazol-2-yl)aminoquinoxalin-2-yl]-4-methyl-benzenesulfonamide] |  | 22.5 |  | 30 | 12.5 | marginal proliferation inhibition at higher concentrations |  | 21.0 | no cytotoxicity beyond the initial 50 μM screening concentration | 3.5 | 0.12 |  | 0.44 | did not induce any apparent toxicity | reduced mice TC-1 metastatic tumor incidence and burden in lungs | 1 |  | 
